Experimental data: PMC10447463, “Data-mining unveils structure–property–activity correlation of viral infectivity enhancing self-assembling peptides” (Nature Communications, 2023)
Like-named read-outs stand apart in the source and are kept apart here.

How the values were obtained:
[1] = Turbidity, derived count rate of scattered light; assay type: physicochemical; conditions: for Zeta Count Rate / kcps: derived count rate of scattered light
In short: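 Samples: 1 mg/mL in PBS pH 7.4 (from DMSO), 1 d at RT, then diluted in 1 mM KCl immediately before measurement. Triplicates, two independent runs averaged.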

[2] = tested on: HIV-1 infection of TZM-bl cells; assay: HIV-1 infectivity enhancement assay, β-galactosidase luminescence; assay type: cell-based; conditions: for Log10 Inf. rel. to EF-C: log10 of HIV-1 infection of TZM-bl cells relative to EF-C, Fig S15 source data, asymmetric std dev errors
[3] = Zeta-potential measurement; assay type: physicochemical; conditions: for Zeta-pot. / mV: zeta potential of peptide, Fig S15 source data
In short: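 Aggregates: 1 mg/mL peptide, PBS pH 7.4, 1 d RT; dilute in KCl (1 mM, aq); measure mobility → zeta via Smoluchowski.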

[4] = category 1 or 0 from count rate, key not given
[5] = mean, std deviation in next column
[6] = Feb2021, Log10 of infectivity relative to EF-C
[7] = Feb2021, figures match the 1.3 µM column
[8] = Feb2021, infectivity relative to virus only
[9] = Feb2021, n-fold enhancement relative to EF-C
[10] = Feb2021, n-fold infectivity relative to EF-C
[11] = infectivity class (low / medium / high) of each library peptide, main list in c1-c6, same classes repeated in sub-lists of sequences containing the hydrophobicity/charge patterns P+,H0,P+,H0,P0,H0,P0, P+,H0,P0,H0,P0,H0,P0, P+,H0,P0,H0
[12] = mean, std deviation in separate column
[13] = Feb2021 run, infectivity n-fold relative to virus alone
[14] = Feb2021 run, log10 of infectivity relative to EF-C
[15] = Feb2021 run, n-fold infectivity relative to EF-C

Sequence: KFKQFFNMWQ [JG5]
- Zeta Count Rate Category ([1]; category 1 / 0, no key given): 1
- Zeta Count Rate Category [1, 4]: 1
- Zeta Count Rate / kcps [1]: 236.9 kcps
- Zeta Count Rate / kcps [1, 5]: 236.9 kcps
- Log10 of Rel to EFC (Feb2021) [2, 6]: -1.049
- Absolute Infectivity / RLU /s (Feb2021) [2, 7]: 1000 RLU /s
- n-fold to virus (Feb2021) [2, 8]: 3.75
- Rel-to EFC (Feb-2021) [2, 9]: 0.08925
- Rel-to EFC (Feb-2021) [2, 10]: 0.08925
- infectivity [2, 11]: low
- Log10 Inf. rel. to EF-C [2]: -1.0494
- Zeta Pot. / mV [3]: -3.43 mV
- Zeta category ( +1 = if > 4 mV;-1 = if < -4 mV; 0 = -4mV to 4 mV) [3]: 0 (0 = -4mV to 4 mV)
- Zeta category ( +1 = if > 4 mV;-1 = if < -4 mV; 0 = -4mV to 4 mV) ([3]; category from zeta potential): 0 (0 = -4mV to 4 mV)
- Zeta Pot. / mV ([3]; mean, Std Zeta in next column): -3.43 mV
- Zeta-pot. / mV [3]: -3.43 mV

Sequence: KIKIQINMW [JGB1 /TM85]
- Zeta Count Rate Category [1, 4]: 1
- Zeta Count Rate / kcps [1, 5]: 239.6 kcps
- Zeta Count Rate / kcps [1, 12]: 239.6 kcps
- Log10 of Rel to EFC (Feb2021) [2, 6]: 0.3339
- Rel-to EFC (Feb-2021) [2, 9]: 2.157
- n-fold to virus (Feb2021) [2, 13]: 90.64
- Log10 of Rel to EFC (Feb2021) [2, 14]: 0.3339
- Rel-to EFC (Feb-2021) [2, 15]: 2.157
- infectivity [2, 11]: high
- infectivity ([2]; infectivity class (low / medium / high) of the peptide in the sequence-pattern analysis, Fig. S22-A4, class limits not given): high
- Log10 Inf. rel. to EF-C [2]: 0.3339
- Zeta category ( +1 = if > 4 mV;-1 = if < -4 mV; 0 = -4mV to 4 mV) [3]: 1 (+1 = if > 4 mV)
- Zeta category ( +1 = if > 4 mV;-1 = if < -4 mV; 0 = -4mV to 4 mV) ([3]; category from zeta potential): 1 (+1 = if > 4 mV)
- Zeta Pot. / mV ([3]; mean, Std Zeta in next column): 19.7 mV
- Zeta Pot. / mV ([3]; mean, Std in separate column): 19.7 mV
- Zeta-pot. / mV [3]: 19.7 mV

Sequence: QCKIKIQINM [CK2]
- Zeta Count Rate Category ([1]; category 1/0, no key printed): 1
- Zeta Count Rate Category [1, 4]: 1
- Zeta Count Rate / kcps [1, 5]: 9524 kcps
- Zeta Count Rate / kcps [1, 12]: 9524 kcps
- n-fold to virus (Feb2021) ([2]; Feb2021, 1.3 µM value relative to virus only (0 µM)): 16.64
- Log10 of Rel to EFC (Feb2021) [2, 6]: -0.4024
- Rel-to EFC (Feb-2021) [2, 9]: 0.3959
- Rel-to EFC (Feb-2021) [2, 10]: 0.3959
- Absolute Infectivity / RLU /s (Feb2021) ([2]; Feb2021, unrounded values of the 1.3 µM column): 15250 RLU /s
- n-fold to virus (Feb2021) [2, 13]: 16.64
- Log10 of Rel to EFC (Feb2021) [2, 14]: -0.4024
- Rel-to EFC (Feb-2021) [2, 15]: 0.3959
- infectivity [2, 11]: medium
- Log10 Inf. rel. to EF-C [2]: -0.4024
- Zeta category ( +1 = if > 4 mV;-1 = if < -4 mV; 0 = -4mV to 4 mV) [3]: 1 (+1 = if > 4 mV)
- Zeta category ( +1 = if > 4 mV;-1 = if < -4 mV; 0 = -4mV to 4 mV) ([3]; category from zeta potential): 1 (+1 = if > 4 mV)
- Zeta Pot. / mV ([3]; mean, Std Zeta in next column): 11.37 mV
- Zeta Pot. / mV ([3]; mean, Std in separate column): 11.37 mV
- Zeta-pot. / mV [3]: 11.37 mV

Sequence: QCKIKQII [CK6]
- Zeta Count Rate Category ([1]; category 1 / 0, no key given): 1
- Zeta Count Rate Category [1, 4]: 1
- Zeta Count Rate / kcps [1]: 301 kcps
- Zeta Count Rate / kcps [1, 5]: 301 kcps
- Zeta Count Rate / kcps [1, 12]: 301 kcps
- Log10 of Rel to EFC (Feb2021) [2, 6]: -2.189
- Absolute Infectivity / RLU /s (Feb2021) [2, 7]: 206.7 RLU /s
- n-fold to virus (Feb2021) [2, 8]: 0.2719
- Rel-to EFC (Feb-2021) [2, 9]: 0.006472
- Rel-to EFC (Feb-2021) [2, 10]: 0.006472
- n-fold to virus (Feb2021) [2, 13]: 0.2719
- Log10 of Rel to EFC (Feb2021) [2, 14]: -2.189
- Rel-to EFC (Feb-2021) [2, 15]: 0.006472
- infectivity [2, 11]: low
- Log10 Inf. rel. to EF-C [2]: -2.189
- Zeta Pot. / mV [3]: 11 mV
- Zeta category ( +1 = if > 4 mV;-1 = if < -4 mV; 0 = -4mV to 4 mV) [3]: 1 (+1 = if > 4 mV)
- Zeta category ( +1 = if > 4 mV;-1 = if < -4 mV; 0 = -4mV to 4 mV) ([3]; category from zeta potential): 1 (+1 = if > 4 mV)
- Zeta Pot. / mV ([3]; mean, Std Zeta in next column): 11 mV
- Zeta Pot. / mV ([3]; mean, Std in separate column): 11 mV
- Zeta-pot. / mV [3]: 11 mV

Sequence: QCKIKQIINM [CK5]
- Zeta Count Rate Category ([1]; category 1 / 0, no key given): 1
- Zeta Count Rate Category [1, 4]: 1
- Zeta Count Rate / kcps [1]: 20551.06667 kcps
- Zeta Count Rate / kcps [1, 5]: 20551.06667 kcps
- Zeta Count Rate / kcps [1, 12]: 20551.06667 kcps
- Log10 of Rel to EFC (Feb2021) [2, 6]: -0.4555
- Absolute Infectivity / RLU /s (Feb2021) [2, 7]: 11186.66667 RLU /s
- n-fold to virus (Feb2021) [2, 8]: 14.72
- Rel-to EFC (Feb-2021) [2, 9]: 0.3503
- Rel-to EFC (Feb-2021) [2, 10]: 0.3503
- n-fold to virus (Feb2021) [2, 13]: 14.72
- Log10 of Rel to EFC (Feb2021) [2, 14]: -0.4555
- Rel-to EFC (Feb-2021) [2, 15]: 0.3503
- infectivity [2, 11]: medium
- Log10 Inf. rel. to EF-C [2]: -0.4555
- Zeta Pot. / mV [3]: 10.4 mV
- Zeta category ( +1 = if > 4 mV;-1 = if < -4 mV; 0 = -4mV to 4 mV) [3]: 1 (+1 = if > 4 mV)
- Zeta category ( +1 = if > 4 mV;-1 = if < -4 mV; 0 = -4mV to 4 mV) ([3]; category from zeta potential): 1 (+1 = if > 4 mV)
- Zeta Pot. / mV ([3]; mean, Std Zeta in next column): 10.4 mV
- Zeta Pot. / mV ([3]; mean, Std in separate column): 10.4 mV
- Zeta-pot. / mV [3]: 10.4 mV
